From patent EP2062578A1, “Novel use of chemical compounds for the treatment of AIDS” (priority 2007, dated 2009)
“Also recorded” adds a separate entry of the source.

Tests used:
Nef57-205 = target: T1, Nef57-205 (Human immunodeficiency virus type 1 group M subtype B, UniProt P03406); assay: Isothermal Titration Calorimetry (ITC) binding to Nef57-205; design: species or system HIV-1; conditions: for ΔH: enthalpy variation; for ΔH / TΔS / ΔG / N: ITC at 25 °C; for TΔS: entropy variation; for ΔG: free enthalpy variation; for N: stoichiometry, Compound X in 20 mM Hepes pH 7.0, Compound Y in 20 mM Na-phosphate pH 8.0, 100 mM NaCl, 5% DMSO
T1 construct: Purified Nef57-205, as described in Arold et al, Structure 1997 5(10) p 1361); made in house
Procedure: Isothermal titration calorimetry (ITC) is used to investigate in vitro the binding affinity and thermodynamic parameters of the inhibitory molecules.
Purified Nef57-205, as described in Arold et al, Structure 1997 5(10) p 1361) was extensively dialyzed in degassed ITC buffer (20 mM Hepes pH 7.0, 100 mM NaCl, 5% DMSO), except for binding experiments with Compound Y, where 20 mM Na-phosphate pH 8.0, 100 mM NaCl, 5% DMSO was used as buffer. Synthetic inhibitors were first dissolved at 10 mM in 100% DMSO, and then diluted to 300 - 400 µM in ITC buffer with DMSO concentration adjusted to 5%. Inhibitors were injected from the 300 µL syringe into the 1.4 mL sample cell containing 15-25 µM Nef57-205. ITC titrations were performed at 25 °C, using 10 - 15 µl injections every 300 secondes. All inhibitors were also titrated into ITC buffer alone, and the resulting heat of dilution was subtracted from the experimental curves. ITC was performed with a VP ITC MicroCalorimeter from MicroCal Inc., and data were fitted with Microcal Origin™ software. The results are summarized in Table I and illustrated in Figure 1.

[1] = test system: Nef-mediated MHC-I down-regulation; assay: MHC-I down-regulation by Nef in Nef-GFP transfected human PBMC (flow cytometry); type: cell-based; conditions: 25µM or 10µM for 3 hr, compared with 5µM LY294002 as control
Procedure: (§1) Nef advances the endocytosis and degradation of […] surface proteins, including CD4 and MHC proteins (Schwartz et al., 1996, Nature Medecine 2:338-342). Consequently, some compounds of the instant invention were tested for their ability to prevent their degradations by interacting with Nef. Human peripheral blood mononuclear cells (PBMC) from healthy volunteers were purified by Ficoll gradient centrifugation ( Lymphoprep™, Axis-shield). Washed, isolated PBMC were transiently transfected using the nucleofection technology (human T cell Nucleofector™ kit, 5.10^6 cells, 5µg plasmid DNA Nef-GFP or GFP (Nucleofactor Program V-024™, Amaxa Biosystems)). The same Nef sequence as described above in example 1 was cloned in pEGFP-N3 (Clonetech). […]
(§2) At 45 hr post transfection cells were treated with 25 µM of Compound X or 0.5% DMSO (control) for 3 hrs. Cells were then incubated with human anti-CD4+-PE or human anti-HLA-ABC (MHC-I) and analyzed by flow cytometry. Flow Cytometric Analysis were performed as follows: Cells were washed and resuspended in fluorescence-activated cell sorter (FACS) medium (PBS 2% FCS 0.02% NaN3, pH 7.2). […] Cells were washed and analyzed on FACS scan using Flow Jo software™ (Beckman Coulter for 20100326 and BD Pharmingen for 551497).
(§3) Viable CD4+ T cells were analyzed for GFP and anti-CD4+ (panel A, figure 2) or GFP and anti-HLA-ABC (panel B, figure 2) staining. […]

[2] = test system: Nef-mediated CD4 down-regulation; assay: CD4 down-regulation by Nef in Nef-GFP transfected human PBMC (flow cytometry); type: cell-based; conditions: 25µM or 10µM for 3 hr
Procedure: as §1, §2, §3

SMILES	Kd (Nef57-205) [nM]	ΔH (Nef57-205) [kcal/mol]	TΔS (Nef57-205) [kcal/mol]	ΔG (Nef57-205) [kcal/mol]	N (Nef57-205)	Nef-mediated MHC-I down-regulation [1]	Nef-mediated CD4 down-regulation [2]
CC(C)(C)c1ccc(OC(=O)Nc2ccc(O)c(C(=O)O)c2)cc1 [Compound X, 2-hydroxy-5-[(4-tert-butylphenoxy)carbonylamino]benzoic acid]	1800 ± 850	-0.956 ± 0.096	6.88	-7.84	0.83 ± 0.06	reduce in a dose-dependent manner; also recorded: partially blocked	not
CC(C)(C)c1ccc(OCC(=O)Nc2cccc(C(=O)O)c2)cc1 [Compound Y, 3-{[(4-tert-butylphenoxy)acetyl]amino}benzoic acid]	980 ± 300	-0.765 ± 0.0478	7.41	-8.17	1.14 ± 0.1		
